Reference: US6810371B1 (priority 1906, dated 2004)
Read-outs that look alike come from different tables or passages of the source.

Columns and labels:
[1] = Description: Finally, if it is judged to be safe at S8, S12, or S15, overall safety is evaluated. Here, the sum of respective reciprocals of the previously determined inhalation safety coefficient, percutaneous safety coefficient, and oral safety coefficient is determined, and the reciprocal of thus determined value is defined as an overall safety coefficient (S16).
inhalation safety coefficient=inhalation non-influential amount [mg/kg/day]/estimated exposure amount in inhalation [mg/kg/day]
percutaneous safety coefficient=percutaneous non-influential amount [mg/kg/day]/estimated percutaneous exposure amount [mg/kg/day]
oral safety coefficient=oral non-influential amount [mg/kg/day]/estimated oral exposure amount [mg/kg/day]

rat = assay: Non-influential amount of a rat (inhalation, percutaneous, oral toxicity tests); assay type: in vivo; details: for non-influential in-air concentration: 4-week inhalation test (d-phenothrin 4 h/day, 6 days a week; d-tetramethrin 3 h/day, 7 days a week); for non-influential amount in inhalation: 4-week test (d-phenothrin 4 h/day, 6 days a week; d-tetramethrin 3 h/day, 7 days a week), respiration 0.365 L/min/kg; for non-influential amount for oral exposure: 6-month test; for non-influential amount for percutaneous exposure: 21-day test
Excerpt: (6-month test) for oral exposure. […] (6-month test) for oral exposure.

[2] = Estimated exposure amount of inhabitants (inhalation, percutaneous, oral); details: for estimated PERCUTANEOUS exposure amount: contact area 4.0 m^2/day; for estimated exposure amount in INHALATION (WINDOW CLOSED): exposure time 24 h/day; for estimated exposure amount in INHALATION (WINDOW OPEN): window opened for 5 minutes after spraying; for estimated ORAL exposure amount: hand surface area ratio about 5 %, oral transference ratio 100 %
Excerpt: estimated exposure amount in inhalation [mg/kg/day]=mean concentration in indoor air [mg/m^3]×amount of respiration [m^3/kg/min]×exposure time [min/day]
estimated percutaneous exposure amount [mg/kg/day]=(mean residual amount [mg/m^2]×skin attachment ratio [%]×contact area [m^2/day])/body weight [kg]
estimated oral exposure amount [mg/kg/day]=estimated percutaneous exposure amount [mg/kg/day]×hand surface area ratio [%]×oral transference ratio [%]
Here, the mean indoor respiration amount of Japanese is 0.220 [L/min/kg] for an adult, and 0.235 [L/min/kg] for an infant. Also, the exposure time was presumed to be 24 [h/day], taking account of the worst case where inhabitants are confined in the room for 24 hours after spraying.
In the table, “window closed” refers to the case where the window is closed throughout the exposure time, whereas “window open” refers to the case where spraying was effected in the state with the closed window and then the window was opened for 5 minutes (Example 3).
Here, it was assumed that the contact area for an infant and an adult was 4.0 [m^2/day], the body weight of the infant was 10.2 [kg], and the body weight of the adult was 50 [kg]. […] These values were used for calculating the estimated percutaneous exposure amount.
Here, while the hand surface area ratio was assumed to be about 5[%], and the oral transference ratio was presumed to be the worst case of 100[%], only the estimated oral exposure amount of the infant was calculated.

[3] = ADULT, respiration 0.220 L/min/kg
[4] = INFANT, respiration 0.235 L/min/kg

SMILES: CC(C)=CC1[C@@H](C(=O)OCc2cccc(Oc3ccccc3)c2)C1(C)C (stereo in doubt) [d-phenothrin]
- INHALATION (WINDOW CLOSED) safety coefficient ([1]; ADULT): 24,700
- INHALATION (WINDOW OPEN) safety coefficient ([1]; ADULT): 124,000
- PERCUTANEOUS safety coefficient ([1]; ADULT): 1,810,000
- TOTAL (WINDOW CLOSED) safety coefficient ([1]; ADULT): 24,400
- TOTAL (WINDOW OPEN) safety coefficient ([1]; ADULT): 116,000
- INHALATION (WINDOW CLOSED) safety coefficient ([1]; INFANT): 23,100
- INHALATION (WINDOW OPEN) safety coefficient ([1]; INFANT): 116,000
- ORAL safety coefficient ([1]; INFANT): 923,000
- PERCUTANEOUS safety coefficient ([1]; INFANT): 369,000
- TOTAL (WINDOW CLOSED) safety coefficient ([1]; INFANT): 21,300
- TOTAL (WINDOW OPEN) safety coefficient ([1]; INFANT): 80,400
- non-influential in-air concentration (rat): 210 mg/m^3
- non-influential amount in inhalation (rat): 18.4 mg/kg/day
- non-influential amount for oral exposure (rat): 125 mg/kg/day
- non-influential amount for percutaneous exposure (rat): 1000 mg/kg/day
- estimated PERCUTANEOUS exposure amount ([2]; ADULT, body weight 50 kg): 0.553
- estimated exposure amount in INHALATION (WINDOW CLOSED) [2, 3]: 0.744
- estimated exposure amount in INHALATION (WINDOW OPEN) ([2]; ADULT): 0.149
- estimated PERCUTANEOUS exposure amount ([2]; INFANT, body weight 10.2 kg): 2.71
- estimated exposure amount in INHALATION (WINDOW CLOSED) [2, 4]: 0.795
- estimated ORAL exposure amount ([2]; INFANT): 0.135
- estimated exposure amount in INHALATION (WINDOW OPEN) ([2]; INFANT): 0.159

SMILES: CC(C)=CC1[C@@H](C(=O)OCN2C(=O)C3=C(CCCC3)C2=O)C1(C)C (stereo in doubt) [d-tetramethrin]
- non-influential in-air concentration (rat): 49 mg/m^3
- non-influential amount in inhalation (rat): 3.22 mg/kg/day
- non-influential amount for oral exposure (rat): 10.75 mg/kg/day
- non-influential amount for percutaneous exposure (rat): 1000 mg/kg/day
- estimated PERCUTANEOUS exposure amount ([2]; ADULT, body weight 50 kg): 0.438
- estimated exposure amount in INHALATION (WINDOW CLOSED) [2, 3]: 1.01
- estimated exposure amount in INHALATION (WINDOW OPEN) ([2]; ADULT): 0.202
- estimated PERCUTANEOUS exposure amount ([2]; INFANT, body weight 10.2 kg): 2.15
- estimated exposure amount in INHALATION (WINDOW CLOSED) [2, 4]: 1.12
- estimated ORAL exposure amount ([2]; INFANT): 0.107
- estimated exposure amount in INHALATION (WINDOW OPEN) ([2]; INFANT): 0.224
